The record followed here is US9587187B2, “Alkyl trityl phenyl ethers” (Rohm and Haas Company, priority 2013, dated 2017).

This data set is described as follows: Solubility studies of alkyl trityl phenyl ethers in solvents at −10° C. Format: physicochemical. As to conditions: freezer at −10° C., checked daily for crystallization. As to the method: Solubility Studies: The solubility properties of the alkyl trityl phenyl ethers were determined by mixing 0.1 grams of test sample with 0.9 grams of solvent. The mixtures were warmed to 60° C. for a few minutes to make homogeneous solutions. The solutions were cooled back to room temperature, and then they were placed into a freezer at −10° C. The solutions were checked daily to see if crystallization had occurred. The solvents evaluated were ADVASOL 200H (mixed aromatics solvent from Advanced Aromatics), ADVASOL 200H ND (naphthalene-depleted mixed aromatics solvent from Advanced Aromatics), cyclohexanone, and o-sec-butyl phenol (OSBP).

[1] abbreviates: 10 wt.% alkyl trityl phenyl ether in 200H - OSBP (75:25, w:w).
[2] abbreviates: 10 wt.% alkyl trityl phenyl ether in 200H - cyclohexanone (75:25, w:w).
Setting [3] is: 10 wt.% alkyl trityl phenyl ether in 200H ND - OSBP (75:25, w:w).
[4] abbreviates: 10 wt.% alkyl trityl phenyl ether in 200H ND - cyclohexanone (75:25, w:w).

Take `CCCCCCCCCCOc1ccc(C(c2ccccc2)(c2cccc(C)c2)c2cccc(C)c2)cc1C(C)CC` (stereo not drawn) [mmMS4-10]: the “Solubility at −10° C., Days” value by setting is: under setting [1], “Soluble after 102”; under setting [2], “Soluble after 102”.

With `CCCCCCCCCCOc1ccc(C(c2ccccc2)(c2ccccc2)c2ccc(C)cc2)cc1C(C)CC` (stereo not drawn) [pMS4-10], the “Solubility at −10° C., Days” value is, setting by setting: (10 wt.% alkyl trityl phenyl ether in 200H (ADVASOL 200H mixed aromatics solvent)) “Soluble after 7 days”; under setting [1], “Soluble after 7 days”; under setting [2], “Soluble after 7 days”; (10 wt.% alkyl trityl phenyl ether in 200H ND (naphthalene-depleted mixed aromatics solvent)) “Soluble after 7 days”; under setting [3], “Soluble after 7 days”; under setting [4], “Soluble after 7 days”.

Consider `CCCCCCOc1ccc(C(c2ccccc2)(c2ccccc2)c2ccc(C)cc2)cc1OCCCCCC` [pM3,4-6, ((3,4-Bis(hexyloxy)phenyl)(p-tolyl)methylene)dibenzene], for which the “Solubility at −10° C., Days” value under setting [1] is reported as “Soluble after 76 days”; the “Solubility at −10° C., Days” value under setting [2] is listed as “Soluble after 7 days”; the “Solubility at −10° C., Days” value under setting [3] is on record as “Soluble after 76 days”; the “Solubility at −10° C., Days” value under setting [4] is listed as “Soluble after 7 days”.
